According to ChEMBL document CHEMBL3044789, “Comparing weed and crop seedling response to pre-emergence pendimethalin application in Corchorus olitorius and Abelmoschus esculentus” (Crop Prot, 2006):

Assays:
[1] = system: Ageratum conyzoides; assay: Herbicidal activity against Ageratum conyzoides in Abelmoschus esculentus plots assessed as minor weed growth at 1.32 kg a.i/ha after 2 weeks; format: functional
[2] = system: Cyperus rotundus; assay: Herbicidal activity against Cyperus rotundus in Corchorus olitorius plots assessed as minor weed growth at 0.66 kg a.i/ha after 2 weeks; format: functional
[3] = system: Euphorbia heterophylla; assay: Herbicidal activity against Euphorbia heterophylla in Abelmoschus esculentus plots assessed as weed cover at 1.32 kg a.i/ha after 7 weeks (reference value: 14.7 +/- 0.46 %); format: functional
[4] = system: Ageratum conyzoides; assay: Herbicidal activity against Ageratum conyzoides in Abelmoschus esculentus plots assessed as weed cover at 1.32 kg a.i/ha after 7 weeks (reference value: 14.7 +/- 0.46 %); format: functional
[5] = system: Calopogonium mucunoides; assay: Herbicidal activity against Calopogonium mucunoides in Abelmoschus esculentus plots assessed as weed cover at 0.33 kg a.i/ha after 7 weeks (reference value: 14.7 +/- 0.46 %); format: functional
[6] = system: Mimosa pudica; assay: Herbicidal activity against Mimosa pudica in Abelmoschus esculentus plots assessed as weed cover at 0.33 kg a.i/ha after 2 weeks (reference value: 63.5 +/- 0.29 %); format: functional
[7] = system: Abelmoschus esculentus; assay: Phytotoxicity in Abelmoschus esculentus assessed as shoot length at 0.66 kg a.i/ha treated to soil after 7 weeks (reference value: 8.5 +/- 0.34 mm); format: organism-based; conditions: in vivo, other, 1176 h
[8] = system: Corchorus olitorius; assay: Phytotoxicity in Corchorus olitorius assessed as root length at 1.32 kg a.i/ha treated to soil after 7 weeks (reference value: 16.9 +/- 0.09 mm); format: organism-based; conditions: in vivo, other, 1176 h
[9] = system: Abelmoschus esculentus; assay: Phytotoxicity in Abelmoschus esculentus assessed as root length at 0.66 kg a.i/ha applied as solution after 7 weeks (reference value: 23 +/- 0.34 mm); format: organism-based; conditions: in vivo, other, 1176 h
[10] = system: Abelmoschus esculentus; assay: Phytotoxicity in Abelmoschus esculentus assessed as shoot length at 0.99 kg a.i/ha treated to soil after 7 weeks (reference value: 8.5 +/- 0.34 mm); format: organism-based; conditions: in vivo, other, 1176 h
[11] = system: Chromolaena odorata; assay: Herbicidal activity against Chromolaena odorata in Corchorus olitorius plots assessed as weed cover at 0.99 kg a.i/ha after 4 weeks (reference value: 20.1+/- 0.57 %); format: functional
[12] = system: Synedrella nodiflora; assay: Herbicidal activity against Synedrella nodiflora in Corchorus olitorius plots assessed as weed cover at 1.32 kg a.i/ha after 4 weeks (reference value: 20.1+/- 0.57 %); format: functional
[13] = system: Euphorbia heterophylla; assay: Herbicidal activity against Euphorbia heterophylla in Corchorus olitorius plots assessed as weed cover at 0.99 kg a.i/ha after 4 weeks (reference value: 20.1+/- 0.57 %); format: functional
[14] = system: Ageratum conyzoides; assay: Herbicidal activity against Ageratum conyzoides in Corchorus olitorius plots assessed as weed cover at 0.33 kg a.i/ha after 4 weeks (reference value: 20.1+/- 0.57 %); format: functional

CCC(CC)Nc1c([N+](=O)[O-])cc(C)c(C)c1[N+](=O)[O-] [PENDIMETHALIN]
Activity [1]: 1 /m2
Activity [2]: 1 /m2
Activity [3]: 82.4%
Activity [4]: 82.4%
Activity [5]: 90%
Activity [6]: 56.8%
Activity [7]: 5.8 mm
Activity [8]: 14.7 mm
Activity [9]: 11.8 mm
Activity [10]: 5.6 mm
Activity [11]: 48.3%
Activity [12]: 33.3%
Activity [13]: 48.3%
Activity [14]: 73.3%
